Measured values: patent US20140066394A1, “Substituted 6-(Benzylamino) Purine Riboside Derivatives, Use Thereof and Compositions Containing These Derivatives” (Biopatterns, S.R.O, priority 2009, published 2014)

Tests used:
human osteosarcoma HOS = test: In vitro cytotoxicity, Calcein AM assay, HOS; assay type: cell-based; details: Homo sapiens, 72 hours
Description: (§1) Low cytotoxicity of the compounds is the major property determining the cosmetic use. One of the parameters used, as the basis for cytotoxicity assays, is the metabolic activity of viable cells. For example, a microtiter assay, which uses the Calcein AM, is now widely used to quantitate cell proliferation and cytotoxicity. For instance, this assay is used in drug screening programs and in chemosensitivity testing. Because only metabolically active cells cleave Calcein AM, these assays detect viable cells exclusively. The quantity of […] Calcein AM corresponds to the number of vital cells in the culture.
(§2) Human T-lymphoblastic leukemia cell line CEM; promyelocytic HL-60 and monocytic U937 leukemias; breast carcinoma cell lines MCF-7, BT549, MDA-MB-231; glioblastoma U87MG cells; cervical carcinoma cells HELA; sarcoma cells U2OS and Saos2; hepatocellular carcinoma HepG2; mouse fibroblasts NIH3T3; mouse immortalized bone marrow macrophages B2.4 and B10A.4; P388D1 and L1210 leukemia; B16 and B16F10 melanomas; human osteosarcoma HOS; human myeloid leukemia K-562; human skin melanoma G-361 were used for routine screening of compounds. The cells were maintained in Nunc/Corning 80 cm^2 plastic tissue culture flasks and cultured in cell culture medium (DMEM with 5 g/l glucose, 2 mM glutamine, 100 U/mL penicillin, 100 μg/mL streptomycin, 10% fetal calf serum and sodium bicarbonate).
(§3) The cell suspensions that were prepared and diluted according to the particular cell type and the expected target cell density (2.500-30.000 cells per well based on cell growth characteristics) were added by pipette ([…]) into 96/well microtiter plates. Inoculates were allowed a pre-incubation period of 24 hours at 37° C. and 5% CO2 for stabilisation. Four-fold dilutions of the intended test concentration were added at time zero in 20 μl aliquots to the microtiter plate wells. Usually, the compound tested was evaluated at six 4-fold dilutions. In routine testing, the highest well concentration was 100 μM, but it can be the matter of change dependent on the agent. All drug concentrations were examined in duplicates. Incubations of cells with the tested compounds lasted for 72 hours at 37° C., in 5% CO2 atmosphere and 100% humidity. At the end of the incubation period, the cells were assayed by using Calcein AM. Ten microliters of the stock solution were pipetted into each well and incubated for 1 hour. Fluorescence (FD) was measured with the Labsystem FIA Reader Fluoroscan Ascent (UK). The tumour cell survival (GI50) was calculated using the following equitation: TCS=(FDdrug exposed well/mean FDeontrol wells)×100%. The GI50 value, the drug concentration lethal to 50% of the tumour cells, was calculated from the obtained dose response curves.
(§4) Zero cytotoxicity of the novel compounds is the basic prerequisite for agricultural and tumor-unrelated applications. The cytoxicity of the novel compounds was tested on a panel of cell lines of different histogenetic and species origin (Table 9). We show herein that equal activities were found in all tumour cell lines tested, however, the non-malignant cells, e.g. NIH3T3 fibroblasts and normal human lymphocytes, were resistant to 2,6-disubstituted purine ribosides induced cytotoxicity. The compounds listed in Tab. 9 can be divided into 2 groups. The first group contains “classical cytokinins” represented by 6-substituted purine ribosides (which are known in the prior art). The second group contains the novel 2,6-disubstituted derivatives of these compounds. […] GI50 for NIH3T3 fibroblasts and normal human lymphocytes was always higher than 100 μM. The novel derivatives show no toxicity to normal and tumour cells in concentrations about 100 μM and thus are more suitable for agricultural applications than “classical cytokinins” (6-substituted purine riboside derivatives).

[1] = system: Human T-lymphoblastic leukemia cell line CEM; test: In vitro cytotoxicity, Calcein AM assay, CEM; assay type: cell-based; details: Homo sapiens, 72 hours
Description: as §1, §2, §3, §4

neutrophils = test: Neutrophil adhesion, rolling and migration under flow over TNF primed HUVEC; assay type: cell-based, human
Protocol: Neutrophils were introduced into a flow based cell adhesion instrument at 5×10^6 cells/ml in medium containing 50 or 100 μM of compound 10. The capillary system is lined with TNF-primed HUVEC and cell adhesion, rolling and transmigration is monitored by time-lapse video microscopy. Data are expressed as cells adhered to HUVEC per mm^2, per 10^6 cells (left panel) or % of cells rolling or migrated (right panel). LGR 1406 (N-5-(2-aminocyclohexyl)-N-7-benzyl-3-isopropyl-1(2)H-pyrazolo[4,3-d]pyrimidine-5,7-diamine, Sroka et al. Mol Pharmacol. 2010; 77(2):255-61) was used as a negative control. Data are mean±SD of 3 separate experiments.
LGR 1406 as a negative control.
The ability of neutrophils to adhere to vascular endothelium and migrate from the blood into tissue, is the first step in the inflammatory process. Interference with this process would also result in suppression of inflammation. Neutrophils were flowed over TNF primed endothelial cells (HUVEC) lining a capillary based migration system, at flows rates and pressures mimicking the in vivo vasculature (see for detailed description of apparatus). Cells were recorded using time-lapse video microscopy and the numbers of rolling, adhered and transmigrated cells were enumerated over a 20 minute period. In test incubations the neutrophils and HUVEC were pre-treated with compound 10 at 50 and 100 μM and the compound was also present in the medium in which neutrophils were suspended.

[2] = compound at 50 and 100 μM, 20 minute period

`COc1cccc(CNc2nc(Cl)nc3c2ncn3C2OC(CO)C(O)C2O)c1O` (centres unmarked) [Compound 10, 2-Chloro-6-(2-hydroxy-3-methoxybenzylamino)purine riboside] was tested, and the GI50 (human osteosarcoma HOS) was greater than 100 µM, the GI50 [1] was greater than 100 µM and the neutrophil rolling velocity (neutrophils; FIG. 7, LGR 1406 as negative control) was “positive effects”. For the same compound, the “number of cells that adhered and transmigrated through the endothelial layer” value (neutrophils; [2]) was “reduced the number of cells that adhered and transmigrated” and the “number of cells that rolled over the endothelium” value (neutrophils; [2]) was “increased the ones that rolled over the endothelium”.
